Source: patent publication US6130250A, “Veterinary use of a pleuromutilin derivative” (priority 1996, dated 2000)
Entries after “also recorded” stand apart in the source; their conditions may differ. Where a name gives a salt, the structure may show the parent alone.

Legend:
M. hyopneumoniae [1] = experiment: Development of resistance (habituation study), MIC before and after passages; format: cell-based, Mycoplasma hyopneumoniae; conditions: for Resistance increase: up to P10/P11
Method: Mycoplasma hyopneumoniae reference strain NCTC 10110 (obtained from the National Collection of Type Cultures, London, UK) and a recent field isolate (MEVT G23), are grown aerobically at 36° C. in Mycoplasma glucose broth containing phenol red until an acid colour change occurs. After addition of sterile glycerol (5% v/v) the cultures are dispensed in 1 ml aliquots and frozen at -70° C. These cultures are used to initiate further broth cultures which are titrated to obtain the number of colour changing units (ccu) in microtitre plates after incubation (36° C.). Replication allows challenge of antibiotic dilutions with predetermined numbers of ccu in minimal inhibitory concentration (MIC) tests and in the primary passage in habituation studies.
A commercially available medium (Mycopiasma Experience Ltd.) containing glucose and phenol red (MEGB) is used at pH 7.6.
Stock test compound solutions are prepared at 1000 μg/ml in deionized water. After vortexing, the solutions are sterilized by filtration through 0.2μ pore size membrane filters (Sartorius Minisart, N). For use in the MIC tests the stock solutions are diluted in mycoplasma broth to double the final concentrations required. In habituation studies the stock solutions are dispensed in 1 ml aliquots and frozen at -20° C. These are thawed and used at 5 day-7 day intervals to prepare ranges of concentrations of drug (doubling series) in MEGB, in 1.9 ml aliquots, covering the MICs against both strains of M. hyopneumoniae. Oxytetracycline hydrochloride is prepared fresh on each occasion. The dilution ranges are gradually changed from passage to passage to allow for the development of resistance in the mycoplasmas.
MIC tests are carried out by the method of Tanner & Wu, Avian Diseases 36 (1992) 714-717 before carrying out the habituation study (below) and after the 10th passages 0.1 ml aliquots of the compound dilution are mixed with 0.1 ml aliquots of the challenge inocula, containing between 10^3 and 10^5 colour changing units (ccu) per ml, in microtitre wells. Each microtitre plate contains uninoculated medium, medium at pH 6.8 (end-point-control) and drug-free inoculated challenge controls. All plates are sealed and incubated aerobically at 36° C. MICs are recorded when the colour change in the challenge control wells match the pH 6.8 control (orange-yellow). The MIC is the lowest concentration to show no colour change.
Habituation study: In the primary passage experiment, 1.9 ml volumes of antibiotic solutions at concentrations covering the MIC of the M. hyopneumoniae strain under test, are inoculated with 0.1 ml of broth culture containing between 10^3 ccu/ml to 10^5 ccu/ml. A growth control consisting of drug-free broth inoculated with M. hyopneumoniae and an uninoculated medium control are included in each passage experiment. After 7 days incubation (36° C.) the two highest concentrations of drug-containing broth showing an acid colour change are pooled and used to inoculate a fresh series of drug dilutions in mycoplasma broth (0.1 ml culture into 1.9 ml drug-containing broth). This process is repeated every 5-7 days for up to 10 passages. When the mycoplasma strains become resistant to particular antibiotics, or at the 10th passage, each strain is grown once more in drug-containing broth and the MICs determined.

M. hyopneumoniae [2] = experiment: MIC against M. hyopneumoniae strains isolated from challenge material; format: cell-based, Mycoplasma hyopneumoniae; conditions: Mesomycoplasma hyopneumoniae
M. hyopneumoniae [3] = experiment: Prevention of experimentally-induced enzootic pneumonia in vivo (Trials 1-3); set-up: species or system pigs
Method: An experimental model of enzootic pneumonia, using passaged lung material originally derived by infection of gnotobiotic pigs with M. hyopneumoniae,was employed to assess the potential of valnemulin for prevention of the disease. Three trials were performed: Trials 1 and 2 were dose titration studies of the novel compound using a standard challenge strain of M. hyopneumoniae and in Trial 3, the efficacy of the compound at 200 ppm in feed against a second challenge strain was assessed. Large white Landrace male pigs, 6-7 weeks of age, from stock free of infection with M. hyopneumoniae are used. The challenge materials are pneumonic lungs containing M. hyopneumoniae given as a homogenate intranasally on three successive days. […] The challenge material was originally derived by infection of gnotobiotic pigs with M. hyopneumoniae and subsequent passage in SPF (Specific Pathogen-free) pigs and had been stored below -70° C.
Trial 1: Medication with valnemulin hydrochloride by stomach tube (gavage) once a day at 0 (control), 2.5, 5, 7.5 or 10 mg/kg body weight per day. Six pigs per group.
Trial 2: Medication with valnemulin hydrochloride in feed at 0, 100, 200, 300 or 400 ppm (equivalent to 0, 5, 10, 15 and 20 mg/kg/day). Six pigs per group.
Trial 3: Medication with valnemulin hydrochloride in feed at 0 or 200 ppm (equivalent to 0 and 10 mg/kg/day). Eight pigs per group. Medication was given from the first day of challenge infection until post-mortem examination performed approximately 3 weeks after challenge infection. Disease was assessed by quantifying lung lesions [Cambridge lung lesion scoring system (Goodwin, R. F. W. and Whittlestone, P., J. Hyg. 69 [1971] 391-397), in which the score is an approximation of percent of lung affected with pneumonia], by estimation of lung-bodyweight ratio and by isolation of M. hyopneumoniae from lungs.

Lawsonia intracellularis = experiment: Challenge study: porcine proliferative enteropathy; format: in vivo, pigs
[4] = Acute toxicity in the rat; format: in vivo
Method: The acute toxicity in the rat of the compound of formula I in hydrochloride salt form was determined with single doses of 1000 mg/kg and 2000 mg/kg orally administered to 5 male and 5 female rats per dose group. Deaths occurred within 1-8 days. The LD50 -value obtained is >1000 mg/kg p.o.

[5] = Trial 2, feed, 100 ppm (5 mg/kg)
[6] = Trial 2, feed, 200 ppm (10 mg/kg)
[7] = Trial 2, feed, 300 ppm (15 mg/kg)
[8] = Trial 2, feed, 400 ppm (20 mg/kg)
[9] = Trial 3, feed, 200 ppm (10 mg/kg)

In the case of `C=C[C@]1(C)C[C@@H](OC(=O)CSC(C)(C)CNC(=O)[C@H](N)C(C)C)[C@]2(C)[C@H](C)CC[C@]3(CCC(=O)[C@H]32)[C@@H](C)[C@@H]1O` [valnemulin hydrochloride, 14-O-[1-[(R)-2-amino-3-methylbutyrylamino]-2-methylpropan-2-ylthioacetyl]mutilin], the “resistance development in words” value (M. hyopneumoniae [1]; M. hyopneumoniae strains, in vitro passages) is reported as “resistance development was minimal; also recorded: does not induce significant resistance to itself”, the MIC (M. hyopneumoniae [1]; Mesomycoplasma hyopneumoniae, NCTC10110, read-out: Post-passage MIC up to P10/P11) is reported as 5 ng/mL and the Resistance increase (M. hyopneumoniae [1]; NCTC 10110) is reported as 2 fold. For the same compound, the “activity greater than those of tylosin and oxytetracycline” value (M. hyopneumoniae [1]; before exposure, both strains) was 50-100 told, the Resistance increase (M. hyopneumoniae [1]; field isolate) was 2.5 fold and the MIC (M. hyopneumoniae [2]; strain from material used in Trial 3) was 7.8 ng/mL. The MIC (M. hyopneumoniae [2]; strain in material used in Trials 1 & 2) was 16 ng/mL, the “pigs from which M. hyopneumoniae was reisolated” value (M. hyopneumoniae [3]; Trial 1, 2.5 mg/kg) was 4 pigs and the reduction of lesions (M. hyopneumoniae [3]; Trial 1, 7.5 mg/kg) was 71%. The “pigs from which M. hyopneumoniae was reisolated” value (M. hyopneumoniae [3]; Trial 1, 10 mg/kg) was 1 pigs, the reduction of lesions (M. hyopneumoniae [3]; Trial 1, 10 mg/kg) was 87% and the “effect on lesions in words” value (M. hyopneumoniae [3]; Trial 1, 2.5 and 5 mg/kg/day) was “somewhat less effective at reducing lesions”. The Lung lesion score (M. hyopneumoniae [3]; Trial 1, gavage, 2.5 mg/kg/day) was 7.7, the Lung-bodyweight ratio (M. hyopneumoniae [3]; Trial 1, gavage, 2.5 mg/kg/day) was 1.21% and the Lung lesion score (M. hyopneumoniae [3]; Trial 1, gavage, 5 mg/kg/day) was 11.1. It also gave a Lung-bodyweight ratio (M. hyopneumoniae [3]; Trial 1, gavage, 5 mg/kg/day) of 1.31%, a Lung lesion score (M. hyopneumoniae [3]; Trial 1, gavage, 7.5 mg/kg/day) of 3.8 and a Lung-bodyweight ratio (M. hyopneumoniae [3]; Trial 1, gavage, 7.5 mg/kg/day) of 1.21%. For the same compound, the Lung lesion score (M. hyopneumoniae [3]; Trial 1, gavage, 10 mg/kg/day) was 1.7, the Lung-bodyweight ratio (M. hyopneumoniae [3]; Trial 1, gavage, 10 mg/kg/day) was 1.08% and the “pigs from which M. hyopneumoniae was reisolated” value (M. hyopneumoniae [3]; Trial 2, 100 ppm) was 4 pigs. The reduction in lesions (M. hyopneumoniae [3]; Trial 2, 100 ppm) was “No reduction in lesions”, the “pigs from which M. hyopneumoniae was reisolated” value (M. hyopneumoniae [3]; Trial 2, 200 ppm) was 3 pigs and the reduction of lesions (M. hyopneumoniae [3]; Trial 2, 200 ppm) was 46%. For the same compound, the reduction of lesions (M. hyopneumoniae [3]; Trial 2, 300 ppm) was 43%, the “reisolation of M. hyopneumoniae” value (M. hyopneumoniae [3]; Trial 2, 300 ppm) was “not reisolated” and the reduction of lesions (M. hyopneumoniae [3]; Trial 2, 400 ppm) was 71%. For the same compound, the “reisolation of M. hyopneumoniae” value (M. hyopneumoniae [3]; Trial 2, 400 ppm) was “not reisolated”, the Lung lesion score (M. hyopneumoniae [3]; [5]) was 25 and the Lung-bodyweight ratio (M. hyopneumoniae [3]; [5]) was 1.53%. For the same compound, the Lung lesion score (M. hyopneumoniae [3]; [6]) was 12, the Lung-bodyweight ratio (M. hyopneumoniae [3]; [6]) was 1.29% and the Lung lesion score (M. hyopneumoniae [3]; [7]) was 12.7. It also gave a Lung-bodyweight ratio (M. hyopneumoniae [3]; [7]) of 1.27%, a Lung lesion score (M. hyopneumoniae [3]; [8]) of 6.3 and a Lung-bodyweight ratio (M. hyopneumoniae [3]; [8]) of 1.24%. For the same compound, the “reduction of lung weights” value (M. hyopneumoniae [3]; Trial 2, levels down to 200 ppm) was “significant reductions at levels down to 200 ppm”, the “levels of M. hyopneumoniae at post-mortem, medicated vs unmedicated” value (M. hyopneumoniae [3]; Trial 3, 200 ppm) was “no difference in the levels of M. hyopneumoniae” and the “reduction of lesion scores” value (M. hyopneumoniae [3]; Trial 3, 200 ppm in feed) was 79%. For the same compound, the Lung lesion score (M. hyopneumoniae [3]; [9]) was 2.3, the Lung-bodyweight ratio (M. hyopneumoniae [3]; [9]) was 1.21% and the “prevention of experimentally-induced enzootic pneumonia” value (M. hyopneumoniae [3]; separate experiments, two challenge strains) was “effective for the prevention of experimentally-induced enzootic pneumonia”. For the same compound, the “prevention or treatment of disease in words” value (Lawsonia intracellularis; low actual doses) was “prevented or treated the disease in a large proportion of challenged pigs”, the “pigs with no visible lesions of proliferative enteropathy” value (Lawsonia intracellularis; prevention group, 25/75 ppm from two days before challenge) was 3 of 7 and the “pigs with no visible lesions of proliferative enteropathy” value (Lawsonia intracellularis; treatment group, 25/75 ppm from seven days after challenge) was 5 of 7. The tolerability ([4]; in vivo) was “well tolerated”, the LD50 ([4]; in vivo, po, single dose) was > 1000 mg/kg and the time of deaths ([4]; oral 1000 and 2000 mg/kg) was 1 to 8 days.
